Results published in patent US20240148691A1, “Treatment of Hypertension-Related and Vascular Diseases” (The Medical College of Wisconsin, Inc., priority 2021, published 2024).
“Also recorded” adds a separate entry of the source.

Assays:
KATP channels = assay: Glibenclamide-induced arteriole constriction in diabetic rats; set-up: species or system rat
Text: The inventors hypothesized that SHetA2 acts by inhibiting p66Shc-induced activation of KATP channels in diabetic animals. Therefore, the inventors treated control and SHetA2 treated arterioles with increasing concentrations of glibenclamide, antidiabetic drug which binds and inhibits the ATP-sensitive potassium channel's KATP inhibitory subunit which causes increasing of intracellular Ca^2+ concentrations leading to arteriole constriction.

[1] = system: renal afferent arterioles; assay: Renal afferent arteriole microvascular responses (juxtamedullary nephron technique) after chronic treatment of hypertensive SS rats; assay type: in vivo, rat
Procedure: (§1) Microvascular responses of renal afferent preglomerular arterioles to perfused pressure. Juxtamedullary nephron vasculature was isolated, and an afferent arteriole was monitored continuously by videomicroscopy. SS/BN2 refers to BN chromosome replacement into SS background. Thus, SS/BN2 are not expected to be salt-sensitive and represent a control for the SS strain.
Vascular reactivity of renal afferent arterioles was measured using the juxtamedullary nephron technique approximately 24 hours after final treatment (18 weeks) (FIG. 9). Remarkably, SHetA2 restored renal microvascular responses in hypertensive rats, as detected by response of afferent arterioles either to increasing perfusion pressure or to ATP, known mediator of afferent arteriolar autoregulatory responses (FIG. 8).
(§2) SS rats were weaned at 3 weeks of age and transferred to 1% salt diet for additional 3 weeks before treatment. At 6 weeks of age, rats were either given vehicle control or SHetA2 at 60 mg/kg by oral gavage. Oral gavage was performed 3 times weekly every other day for a period of 18 weeks. […] Urine was collected from rats housed in metabolic cages for 1-2 hours, approximately 24 hours after last treatment after 6, 12 and 18 weeks of treatment. […] Vascular reactivity of renal afferent arterioles was measured using the juxtamedullary nephron technique approximately 24 hours after final treatment (18 weeks) (FIG. 7).

[2] = system: renal afferent preglomerular arterioles; assay: Renal afferent preglomerular arteriole microvascular responses, SHetA2 added in vitro; set-up: species or system rat
Text: as §1
Microvascular reactivity of renal blood vessels is reduced in two major causes of end stage renal disease: hypertension-induced nephropathy (HN) and diabetic nephropathy. One of the highlights of vascular dysfunction in HN is the loss of autoregulation of blood resistance vessels. Using rat model of salt-sensitive (SS) HN we have previously shown that overexpression of adaptor protein p66Shc is implicated in the loss of microvascular reactivity during the progression of HN (FIGS. 3, 5). In HN p66Shc is over-expressed in vascular smooth muscle cells of the walls of renal resistance arteries, including afferent arteriole (FIG. 4). p66Shc knockout restores the ability of afferent arteriole to contract in response to increased perfusion pressure and ATP (FIG. 5) and mitigates glomerular damage in SS rats on 1% salt diet. In this study, we tested ability of a flexible heteroarotinoid called Sulfur Heteroarotinoid A2 (SHetA2, pronounced Ess-Het-Aye-Two), known to inhibit p66Shc action, to prevent development and restore renal microvascular responses in hypertensive rats when added after the development of hypertension-induced nephropathy. […] Remarkably, SHetA2 prevented loss of microvascular reactivity and restored renal microvascular responses in hypertensive rats, as detected by response of afferent arterioles either to increasing perfusion pressure or to ATP, known mediator of afferent arteriolar autoregulatory responses (FIG. 6).

[3] = system: hypertension-induced nephropathy; assay: Urinary protein excretion in salt-sensitive hypertensive rats; assay type: in vivo, rat
Procedure: as §2
Hypertension-induced nephropathy causes excessive protein excretion in the urine.

[4] = Blood pressure and body weight during long-term treatment of hypertensive rats; assay type: in vivo, rat
Procedure: To assess whether treatment with SHetA2 would reduce the systolic blood pressure in hypertensive rats, animals were treated for 18 weeks with either vehicle control or SHetA2.
as §2

afferent arterioles = assay: Renal microvascular responses in streptozotocin-induced diabetic rats; assay type: in vivo, rat; conditions: for renal microvascular responses: diabetic animals
Text: (§3) The inventors hypothesized that SHetA2 would be effective in preventing and treating diabetic nephropathy. Therefore, the inventors treated rats with diabetes induced by streptozotocin (STZ) with SHetA2. […] (FIGS. 20-21).

diabetic nephropathy = assay: Urinary protein excretion in diabetic animals; assay type: in vivo, rat
Text: as §3

[5] = cited from earlier work

COc1ccc(Cl)cc1C(=O)NCCc1ccc(S(=O)(=O)NC(=O)NC2CCCCC2)cc1 [glibenclamide]
arteriole constriction (KATP channels; control arterioles, increasing glibenclamide concentrations): caused constriction | signs of diabetic nephropathy (KATP channels; diabetic p66ShcKO rats): not diabetic p66ShcKO rats | signs of diabetic nephropathy (KATP channels; diabetic rats): effective in attenuating | glibenclamide effect / arteriole constriction (KATP channels; diabetic rats / arterioles treated with SHetA2, increasing glibenclamide concentrations): not in SHetA2 treated arterioles; also recorded: lack of glibenclamide effect

CC1(C)CC(C)(C)c2cc(NC(=S)Nc3ccc([N+](=O)[O-])cc3)ccc2S1 [SHetA2, Sulfur Heteroarotinoid A2]
renal microvascular responses of afferent arterioles to increasing perfusion pressure or ATP ([1]; hypertensive SS rats, 1% salt diet, SHetA2 60 mg/kg oral gavage 3 times weekly, 18 weeks, about 24 hours after final treatment, 60 mg/kg): restored | renal damage ([1]; hypertensive rats): mitigates | vessel diameter after chronic administration of SHetA2 ([1]; male and female rats (FIG. 17)): decrease | vessel diameter in response to SHetA2 treatment ([2]; dose dependence (FIG. 14)): dose-dependent decrease | renal microvascular responses in renal afferent preglomerular arterioles ([2]; in vitro, hypertensive rats (FIG. 6)): partially restored | renal microvascular response ([2]; salt-sensitive rats with hypertension, dose dependence (FIG. 14)): dose-dependent increase | urinary protein excretion ([3]; S36A salt-sensitive animals): reduces or prevents | urinary protein excretion ([3]; wild type SS hypertensive rats, SHetA2 60 mg/kg oral gavage, vs control-treated rats, 60 mg/kg): statistically significant decrease; also recorded: significantly reduces | urinary protein excretion ([3]; wild type SS hypertensive rats, SHetA2 60 mg/kg oral gavage, vs control-treated rats, listed as SHet2A): reduces or prevents | progression of hypertension / increase of blood pressure ([4]; 1% salt diet, long-term treatment): did not prevent; also recorded: lack of effect | systolic blood pressure ([4]; hypertensive rats, 18 weeks treatment vs vehicle): did not significantly reduce | body weight ([4]; long-term treatment): lack of effect | development of microvascular damage (afferent arterioles; STZ diabetic rats): successfully prevented | renal microvascular responses (afferent arterioles; acute treatment): increased | renal microvascular responses (afferent arterioles; chronic treatment, oral gavage every other day): increased | signs of diabetic nephropathy (dilation of afferent arterioles) (afferent arterioles; p66ShcKO rats treated with STZ): absence of effect | signs of diabetic nephropathy (dilation of afferent arterioles) (afferent arterioles; rats treated with streptozotocin (STZ)): reduces or prevents | urinary protein excretion (diabetic nephropathy): reduces or prevents | effect on heart function ([5]; animal models, after months of treatment): does not have any detectable effect | teratogenicity (birth defects) ([5]; animal models): does not cause | toxicity ([5]; oral, doses 25-fold above the doses used in the rat hypertensive model): no toxicity
